# Experimental data: article PMC11802874, “The hypolipidemic effect of MI-883, the combined CAR agonist/ PXR antagonist, in diet-induced hypercholesterolemia model” (Nature Communications, 2025)
# Marks after values point to notes of the source that are not given here.
# Test: Pharmacokinetic study after single dose in C57BL/6N mice
# Format: in vivo, mouse
# Experimental: Pharmacokinetic study of MI-883 in C57BL/6N mice (9–10 weeks old, body weight 20.8 to 24.5 g and average body weight across all groups 22.7 g, SD = 1.1 g) were performed following peroral (p.o.) and intraperitoneal (i.p.) administrations. […] There was also a control group of 4 animals per route. The levels of the parent compound MI-883 were determined by LC-MS/MS in the blood plasma, brain, kidney, liver, muscle (Leg triceps), bile, small intestine, colon, and adipose tissues over time after a single dose of 10 mg/kg. Mice were injected i.p. with 2,2,2-tribromoethanol at a dose of 150 mg/kg prior to drawing the blood. Blood collection was performed from the orbital sinus in BD microtainers tubes containing K2EDTA. Animals were sacrificed by cervical dislocation after the blood samples collection. After this, samples of brain, kidney, liver, muscle (Leg triceps), small intestine, colon, and adipose tissue were collected. Bile samples were taken from the gallbladder of mice. Urine and feces samples were collected using metabolic cages over the course of 1440 min (24 h) after compound administration. All samples were immediately processed, flash-frozen, and stored at –70 °C until subsequent analysis. Detection of the presence of potential metabolites (2-chloro-5-((4-(2-(4-chlorophenyl)-7-fluoroimidazo[1,2-a]pyridin-3-yl)-1H-1,2,3-triazol-1-yl)methyl)-N-methylbenzamide or 2-(4-chlorophenyl)-7-fluoro-3-(1H-1,2,3-triazol-4-yl)imidazo[1,2-a]pyridine) in plasma and tissues was performed. MI-883 was applied in 5%DMSO – 5%PEG300 – 90%corn oil formulation with a final concentration of the compound, 2 mg/ml. Animal treatment and sample preparation were conducted by the Animal Laboratory personnel at Enamine/Bienta.
# Plasma samples (50 μl) were mixed with 200 μl of IS400 solution. After mixing by pipetting and centrifuging for 4 min at 6000 rpm, 2 μl of each supernatant was injected into the LC-MS/MS system. Solution of compound IS-19851 (400 ng/ml in acetonitrile-methanol mixture 1:1, v/v) was used as internal standard (IS400) for quantification of MI-883 in blood plasma, liver, kidney, muscle (Leg triceps), small intestine, and colon samples. Liver, kidney, muscle (Leg triceps), colon, and small intestine samples (weight 100 mg ±1 mg) were disintegrated in 500 μl of IS400 using zirconium oxide beads (120 mg ± 5 mg) in The Bullet Blender® homogenizer for 1–3 min at speed 8–12. After this, the samples were centrifuged for 3 min at 14,000 rpm, and 1 μl of each supernatant was injected into the LC-MS/MS system.
# Brain and adipose tissue samples (weight 100 mg ± 1 mg) were dispersed in 500 μl of IS400(80) using zirconium oxide beads (120 mg ± 5 mg) in The Bullet Blender® homogenizer for 30 s at speed 8. After this, the samples were centrifuged for 4 min at 14,000 rpm, and 1 μl of each supernatant was injected into the LC-MS/MS system. Solution of compound IS-19851 (400 ng/ml in water-acetonitrile-methanol mixture, 2:4:4, v/v/v) was used as internal standard (IS400(80)) for quantification of MI-883 in the brain, adipose tissue, urine, and bile samples. Urine (cumulative) and bile samples were mixed with IS400(80) solution (1:20, v/v). After mixing by pipetting and centrifuging for 4 min at 6000 rpm, 0.5 μl of each supernatant was injected into the LC-MS/MS system. Cumulative feces samples (114 mg–249 mg) were transferred to BMT-20-S tubes with 4 stainless steel balls, mixed with 20 volumes of IS400(80) solution, and dispersed using ULTRA-TURRAX Tube Drive for 1 min at 3000 rpm within the 30 min thrice. After dispersing and centrifuging for 2 min at 14,000 rpm, 0.5 μl of each supernatant was injected into the LC-MS/MS system.
# The concentration of MI-883 in plasma and tissues was determined using a high-performance liquid chromatography/tandem mass spectrometry (HPLC-MS/MS) method. […]
# [1] = male, C57BL/6N, mouse, ip, Liver, 10 mg/kg
smiles,measurement,setting,value
"NC(=O)c1cc(Cn2cc(-c3c(-c4ccc(Cl)cc4)nc4cc(F)ccn34)nn2)ccc1Cl [MI-883, 2-chloro-5-((4-(2-(4-chlorophenyl)-7-fluoroimidazo[1,2-a]pyridin-3-yl)-1H-1,2,3-triazol-1-yl)methyl)benzamide]","expected metabolites (N-methyl, N-dimethyl benzamide, triazolyl-imidazopyridine) in plasma and tissues",10 mg/kg p.o. and i.p.,No expected metabolites
same,route of excretion,"10 mg/kg, C57BL/6N mice",excreted mainly via bile
same,tissue distribution,"10 mg/kg, C57BL/6N mice","significantly distributed into the liver, but not the brain"
same,"Peroral bioavailability (%, p.o. vs. i.p.)","estimation based on comparison of AUCs after p.o. and i.p. application, 10 mg/kg",98.6* %
same,PK of MI-883: MI-883 i.p. adipose tis.,"i.p., time 10",2064
same,PK of MI-883: MI-883 i.p. adipose tis.,"i.p., time 120",2083
same,PK of MI-883: MI-883 i.p. adipose tis.,"i.p., time 240",2267
same,PK of MI-883: MI-883 i.p. adipose tis.,"i.p., time 480",1643
same,PK of MI-883: MI-883 i.p. adipose tis.,"i.p., time 720",651
same,PK of MI-883: MI-883 i.p. bile,"i.p., time 10",347
same,PK of MI-883: MI-883 i.p. bile,"i.p., time 120",5663
same,PK of MI-883: MI-883 i.p. bile,"i.p., time 240",6712
same,PK of MI-883: MI-883 i.p. bile,"i.p., time 480",17332
same,PK of MI-883: MI-883 i.p. bile,"i.p., time 720",20058
same,PK of MI-883: MI-883 i.p. brain,"i.p., time 10",20
same,PK of MI-883: MI-883 i.p. brain,"i.p., time 120",88
same,PK of MI-883: MI-883 i.p. brain,"i.p., time 240",86
same,PK of MI-883: MI-883 i.p. brain,"i.p., time 480",62
same,PK of MI-883: MI-883 i.p. brain,"i.p., time 720",33
same,PK of MI-883: MI-883 i.p. colon,"i.p., time 10",7473
same,PK of MI-883: MI-883 i.p. colon,"i.p., time 120",3182
same,PK of MI-883: MI-883 i.p. colon,"i.p., time 240",3492
same,PK of MI-883: MI-883 i.p. colon,"i.p., time 480",1531
same,PK of MI-883: MI-883 i.p. colon,"i.p., time 720",1717
same,PK of MI-883: MI-883 i.p. feces,"i.p., feces, time 1440",689 ng
same,PK of MI-883: MI-883 i.p. kidney,"i.p., time 10",1650
same,PK of MI-883: MI-883 i.p. kidney,"i.p., time 120",4299
same,PK of MI-883: MI-883 i.p. kidney,"i.p., time 240",6585
same,PK of MI-883: MI-883 i.p. kidney,"i.p., time 480",3365
same,PK of MI-883: MI-883 i.p. kidney,"i.p., time 720",1611
same,PK of MI-883: MI-883 i.p. kidney,"i.p., time 1440",11
same,PK of MI-883: MI-883 i.p. liver,"i.p., time 10",9584
same,PK of MI-883: MI-883 i.p. liver,"i.p., time 120",14064
same,PK of MI-883: MI-883 i.p. liver,"i.p., time 240",10374
same,PK of MI-883: MI-883 i.p. liver,"i.p., time 480",6478
same,PK of MI-883: MI-883 i.p. liver,"i.p., time 720",4261
same,PK of MI-883: MI-883 i.p. liver,"i.p., time 1440",24
same,PK of MI-883: MI-883 i.p. muscule,"i.p., time 10",114
same,PK of MI-883: MI-883 i.p. muscule,"i.p., time 120",913
same,PK of MI-883: MI-883 i.p. muscule,"i.p., time 240",720
same,PK of MI-883: MI-883 i.p. muscule,"i.p., time 480",687
same,PK of MI-883: MI-883 i.p. muscule,"i.p., time 720",320
same,PK of MI-883: MI-883 i.p. small intestine,"i.p., time 10",10141
same,PK of MI-883: MI-883 i.p. small intestine,"i.p., time 120",7374
same,PK of MI-883: MI-883 i.p. small intestine,"i.p., time 240",4886
same,PK of MI-883: MI-883 i.p. small intestine,"i.p., time 480",1858
same,PK of MI-883: MI-883 i.p. small intestine,"i.p., time 720",873
same,PK of MI-883: MI-883 i.p,"i.p., time 10",565
same,PK of MI-883: MI-883 i.p,"i.p., time 120",5532
same,PK of MI-883: MI-883 i.p,"i.p., time 240",3130
same,PK of MI-883: MI-883 i.p,"i.p., time 480",2314
same,PK of MI-883: MI-883 i.p,"i.p., time 720",1008
same,PK of MI-883: MI-883 i.p,"i.p., time 1440",1
same,Cmax,[1],14100 ng/mL
same,Tmax,[1],0.5 h
same,half-life,[1],2.53 h
same,Cmax,"male, C57BL/6N, mouse, ip, Plasma, 10 mg/kg",5530 ng/mL
same,Vd,"male, C57BL/6N, mouse, plasma, 10 mg/kg, calculated from data after a single dose application, read-out: volume of distribution (Vd) in mice",0.06 L
same,Cmax,"male, C57BL/6N, mouse, po, Liver, 10 mg/kg",14900 ng/mL
